In patent publication US9771430B2, “Method of treating a metabolic disorder induced by obesity in a subject in need thereof by administering MK2/3 inhibitors” (THE TRUSTEES OF COLUMBIA UNIVERSITY IN THE CITY OF NEW YORK, priority 2011, dated 2017):

Tests used:
IP3R = IP3R activity in FAO hepatocytes (Inositol/ATP-induced calcium release assay); assay type: cell-based, rat
Source text: FIGS. 49A-S. The role of IP3R in forskolin/glucagon-induced G6Pase/PEPCK in cultured hepatocytes and in fasting blood glucose in vivo. FIG. 49 A,B. FSK-Induced G6Pase and PEPCK is Calcium-Dependent. FIG. 49C-D. IP3R Activity is Required for Forskolin- and Glucagon-Induced G6Pase and PEPCK (FAO rat hepatocyte cell line). FIG. 49E-F. IP3R Activity is Required for Forskolin-Induced G6Pase and PEPCK (primary murine hepatocytes). FIG. 49G-H. IP3R1 Anti-Sense Oligonucleotide Suppresses Forskolin-Induced G6Pase and PEPCK (primary murine hepatocytes). FIG. 49I. Forskolin Activates IP3R Activity in FAO Hepatocytes (Inositol/ATP-Induced Calcium Release Assay). FIG. 49J. The PKA Inhibitor H89 Suppresses Forskolin-Induced IP3R Activation. FIG. 49K-L. IP3R Activity is Required for Forskolin-Induced PGC1a. FIG. 49M-N. Calcineurin Inhibitory Peptide Suppresses Forskolin-Induced G6Pase and PEPCK. FIG. 49O. IP3R Activity is Required for Forskolin-Induced Calcineurin Activation. FIG. 49P-Q. IP3R Activity is Required for Forskolin-Induced TORC2 Dephosphorylation and Nuclear Localization. FIG. 49R. TORC2 Transduction Partially Restores Forskolin-Induced G6Pase in IP3R-Inhibited Hepatocytes. FIG. 49S. Xestospongin C Treatment Reduces Fasting Glucose Levels in C57BL/6J Mice.

CaMKII = assay type: cell-based, mouse
Protocol: FIG. 1A. CaMKII enzyme activity was assayed in triplicate wells of primary mouse HCs stimulated with 100 nM glucagon (Gluc) or vehicle control (Veh) for the indicated times (*P<0.05 and **P<0.01 vs. Veh; mean±S.E.M.). FIGS. 1B-1J. Extracts of HCs or liver were probed for phospho-CaMKII, total CaMKII, and β-actin by immunoblot assay. FIG. 1B. HCs were incubated with […] glucagon for the indicated times; FIG. 1C. Glucagon was added to HCs that were pre-treated for 1 h with vehicle control (Veh) or 5 μM BAPTA-AM; FIG. 1D. Glucagon was added to HCs that were pre-treated with 0.5 μM xestospongin (XesC) or to HCs from Ip3r1fl/fl mice transduced with adeno-LacZ control or adeno-Cre (bar graph=Ip3r1 mRNA levels); FIG. 1E. Glucagon was added to HCs that were pre-treated for 1 h with vehicle control (Veh) or 10 μM H89. FIG. 1F. […] FIGS. 1G-1J. In vivo experiments. In FIG. 1G, mice were treated for 30 min with 200 μg kg−1 body weight of glucagon i.p., and in FIG. 1H, mice were pre-treated with 10 pmol g−1 xestospongin C or vehicle control i.p. 4 days prior to glucagon treatment. In FIGS. 1I-1J, mice were fed ad libitum or fasted for 12 h, or fasted for 12 h and then re-fed for 4 h.
Total RNA was extracted from hepatocytes using the RNeasy kit (Qiagen). cDNA was synthesized from 2 μg total RNA using oligo (dT) and Superscript II (Invitrogen). Real-time qPCR analysis and western blotting were performed as previously described (Timmins et al., 2009). Nuclear extraction from liver was performed using the Nuclear Extraction Kit from Panomics according to the manufacturer's instructions.
Immunoblot and RT-qPCR assays were performed as previously described (Timmins et al., 2009). Total RNA was extracted from HCs using the RNeasy kit (Qiagen). cDNA was synthesized from 2 μg total RNA using oligo (dT) and Superscript II (Invitrogen). Nuclear extraction from liver was performed using the Nuclear Extraction Kit from Panomics according to the manufacturer's instructions.

cytosolic free calcium = assay: Calcium mobilization in primary hepatocytes (Fura-2 imaging); assay type: cell-based, mouse; conditions: co-/pre-treatment with inhibitor
Protocol: Mouse primary hepatocytes were plated on glass coverslips and loaded with 5 μM Fura-2 acetoxymethyl ester (Molecular Probes) in the presence of 0.025% (w/v) pluronic F127 (Sigma-Aldrich) in Media 199 (Mediatech) for 30 minutes. […] The ratio of fluorescence intensity at the two excitation wavelengths was calculated after subtracting background fluorescence. [Ca2+]I (cytosolic free calcium concentration) was calculated using a Fura-2 calcium imaging calibration kit (Invitrogen). Images were collected and analyzed using the MetaFluor software package (Universal Imaging Corp.). Graphs represent average responses from groups of 30-40 individual cells from representative single experiments. Bar graphs represent average responses (fold over average baseline) from 150-200 cells per condition. All experiments were repeated at least three times with similar results.

dach1 and dach2 mRNA = dach1 and dach2 mRNA in primary mouse hepatocytes; assay type: cell-based; conditions: WT HCs, 0.5 mM, 6 h
Protocol: FIG. 115. Palmitate induces dach1 and dach2 mRNA levels. Primary HCs from WT mice were treated with 0.5 mM palmitate for 6 h. RNA was assayed for dach1 and dach2 mRNA by RT-qPCR (*p<0.05; mean±S.E.M.).

Akt = assay: Insulin-induced Akt phosphorylation in palmitate-treated primary mouse hepatocytes; assay type: cell-based; conditions: HCs with normal p38 (Ad-LacZ)
Protocol: FIGS. 92A-D. Inhibition of CaMKII or p38α Improves Insulin-induced Akt Phosphorylation in Palmitate-treated Primary Hepatocytes. FIG. 92A. Primary HCs from WT mice were transduced with adeno-LacZ or -K43A-CaMKII at an MOI of 10 and then 24 h later incubated with either BSA control or 0.2 mM palmitate for 19 h, with the last 5 h in serum-free media. The cells were then treated with 100 nM insulin or vehicle control for 5 min, and lysates were probed for p-Akt, total Akt, and β-actin by immunoblot (left panel) or immunoprecipitated for IRS-1 and then assayed by immunoblot for the total level of IRS-1 or for phospho-Tyr (PY) (right panel). FIG. 92B. HCs from Mapk14^fl/fl mice were transduced with adeno-LacZ or -Cre and 24 h later incubated with palmitate and then insulin as in FIG. 92A. Lysates were probed for p-Akt, total Akt, β-actin (upper panel), p-GSK3β, total GSK3β, p-FoxO1 and total FoxO1 by immunoblot or immunoprecipitated for IR and IRS-1 and then assayed by immunoblot for the total level of the respective proteins or for phospho-Tyr (lower panel). FIG. 92C. Primary human HCs (metabolism-controlled) were transduced with adeno-LacZ or -K43A-CaMKII at an MOI of 30 and then 36 h later incubated with either BSA control or 0.2 mM palmitate for 10 h, with the last 5 h in serum-free media. […]

TRB3 = TRB3 levels in primary mouse hepatocytes; assay type: cell-based; conditions: control HCs
Protocol: FIGS. 93A-E: Improvement in Insulin-induced Akt Phosphorylation and Glucose Homeostasis by CaMKII Deficiency are Abrogated by Restoring TRB3. FIG. 93A. HCs from Camk2g^fl/fl mice were transduced with adeno-LacZ or -Cre and then 24 h later incubated with BSA or palmitate (0.2 mM) for 19 h. Lysates were immunoblotted for TRB3 and β-actin. FIG. 93B. TRB3 and β-actin were probed in livers from DIO WT mice, Camk2g^−/− mice, or Camk2g^fl/fl mice treated with TBG-LacZ or TBG-Cre. Densitometric quantification of the immunoblot data is shown in the graph (*p<0.05; mean±S.E.M.). FIGS. 93C-E. DIO Camk2g^fl/fl mice were treated with TBG-Cre or TBG-LacZ, and five days later, half of the […] received adeno-TRB3, while the other half received adeno-LacZ control. Livers were assayed for p-Akt, total Aid, TRB3 and β-actin by immunoblotting after fasting the mice for 16 h and then re-feeding them for 4 h. 5 h fasting and fasted-refed blood glucose and plasma insulin were assayed after 4 weeks of treatment (Differing symbols indicate p<0.05; mean±S.E.M.). See also FIG. 99.

ATF4 = assay: Nuclear ATF4 in primary mouse hepatocytes; assay type: cell-based; conditions: control HCs
Protocol: FIGS. 94A-F: Improvement in Insulin-induced Akt Phosphorylation and Glucose Homeostasis by CaMKII Deficiency are Abrogated by Restoring ATF4. FIG. 94A. HCs from Camk2g^fl/fl mice were transduced with adeno-LacZ or -Cre. 24 h later, cells were incubated with tunicamycin (0.5 μg/ml) or vehicle control for 4 h. Nuclear lysates were immunoblotted for ATF4 and nucleophosmin (Np) as a loading control. FIG. 94B. Nuclear ATF4 and nucleophosmin (Np) were probed in livers from DIO Camk2g^fl/fl mice treated with TBG-Cre or TBG-LacZ or ob/ob mice treated with adeno-LacZ or -K43A-CaMKII. FIG. 94C. HCs from […] were transduced with adeno-LacZ or -Cre and then 4 h later, half of the adeno-Cre transduced cells received adeno-ATF4, while the other half received adeno-LacZ control. After 24 h, the cells were incubated with palmitate and then insulin-induced p-Akt was assayed as in FIG. 92. FIG. 94D. As in FIG. 94C, except that Trb3 mRNA was assayed by RT-qPCR (Bars with different symbols are different from each other and control, p<0.01; mean±S.E.M.). […] Livers were assayed for p-Akt, total Aid, β-actin and nuclear ATF4 and nucleophosmin (Np) by immunoblotting after insulin injection through portal vein. 5 h fasting blood glucose and plasma insulin were assayed after three weeks of treatment (Differing symbols indicate p<0.05; mean±S.E.M.). See also FIG. 100.

## Cl.Cl.O=S(=O)(NCCNCC=Cc1ccc(Br)cc1)c1cccc2cnccc12 [H89, N-[2-[[3-(4-Bromophenyl)-2-propenyl]amino]ethyl]-5-isoquinolinesulfonamide dihydrochloride]
IP3R
  Forskolin-Induced IP3R Activation: Suppresses
CaMKII; HCs pre-treated with inhibitor, then glucagon
  glucagon-induced CaMKII phosphorylation: markedly inhibited
Cytosolic free calcium
  cytosolic calcium mobilization in response to glucagon (and forskolin): partially reversed

## CCCCCCCCCCCCCCCC(=O)O [palmitate]
dach1 and dach2 mRNA
  dach1 and dach2 mRNA levels: induces
Akt
  insulin-induced p-Akt signal: lowered
CaMKII; ER stress activation
  p-CaMKIIγ in HCs: increased
TRB3
  TRB3 levels: increase

## tunicamycin
ATF4
  ATF4: increased
